The subject of assay [1] is H1975(L858R/T790M). As to the kind of experiment: H1975 cells proliferation assay. The following applies: Homo sapiens, NCI-H1975; cell proliferation, 72 h, CellTiter Glo; class symbols; read-out: H1975 IC50. It counts as cell-based. As to the method:
(§1) Test 3 H1975 and HCC827 Cells Proliferation Assay
(§2) a) The medium was preheated in a 37° C. water bath in advance.
(§3) b) Remove the cryogenic vials from the liquid nitrogen tank, quickly put it into a 37° C. water bath, and completely melt it in 1 min.
(§4) c) Transfer the cell suspension to a 15 mL centrifuge tube containing 8 mL medium, centrifuge 1000 rpm, 5 min.
(§5) d) Discard the supernatant, resuspend the cells in 1 mL medium, and transfer to a 75 cm^2 flask containing 15 mL medium, culture the cells in an incubator at 37° C., 5% CO2.
(§6) b) Collect cell to a 15 mL centrifuged tube, centrifuge at 1000 rpm for 5 min. Discard the supernatant, count, and make the cell density at 1×10^4 cells/mL, then place it in a 37° C., 5% CO2 incubator.
(§7) b) The above compound solution was diluted 1:20 times with culture medium to prepare a 10 fold working solution;
(§8) a) Take cells in log phase growth, centrifuge at 1000 rpm for 5 min, then resuspend the cells with culture medium, then count cells;
(§9) b) Cells were seeded to 96-well cell culture plate with density at 2000 cells/well (suitable for H1975 cell) and at 2500 cells/well (suitable for HCC827 cell);
(§10) The blank control well was a culture medium (0.5% DMSO);
(§11) b) The cells were incubated for an additional 72 h in the incubator.
(§12) a) Remove the 96-well cell culture plate and add 50 μl of CTG reagent (CellTiter Glo kit, promega, Cat #G7573).
(§13) b) Plate was shaked for 2 min and then let it cool for 10 min at room temperature.
(§14) c) The Luminescence signal value was read using a PerkinElmer reader.
(§15) Experimental Data Analysis
(§16) Data were analyzed using GraphPad Prism 6.0 software to obtain a fitted curve of compound activity.
(§17) Y=Bottom+(Top−Bottom)/(1+10^((Log IC50−X)*HillSlope));
(§18) The cells proliferation assay results are expressed with IC50, shown as Table 2.

The target in assay [2] is EGFR L858R (Homo sapiens, UniProt P00533, L858R). Nature of the assay: Kinase assay (mobility shift) for EGFR L858R. It counts as biochemical. As to the method:
(§19) Enzyme reaction protocol are as followed:
(§20) 1. Preparing 1* Kinase buffer as followed.
(§21) 2. Preparing Compound Concentration Gradient: Compounds were tested at a concentration of 300 nM, diluted to 100-fold final concentration in 100% DMSO solution in 96-well plates, and compounds were diluted 3 times with Precision, 10 concentrations. Each concentration of the compound was then further diluted to a 5-fold final concentration of the intermediate dilution solution using 1* Kinase buffer.
(§22) 3. 5 μL of each of the prepared intermediate dilution compounds was separately added to the compound wells of the 384-well plate, and each concentration was tested for duplicate wells; 5 μL of 5% DMSO was added to the negative control wells and the positive control wells, respectively.
(§23) 4. 2.5-fold final concentration of the kinase solution was prepared using 1*Kinase buffer.
(§24) 6. Centrifuge at 1000 rpm for 30 seconds, shake the reaction plate and incubate for 10 minutes at room temperature.
(§25) 8. 10 μL of a 2.5-fold final concentration of a mixed solution of ATP and a substrate was added to initiate the reaction.
(§26) 9. Centrifuge the 384-well plate at 1000 rpm for 30 seconds, mix by shaking, and incubate at room temperature for the corresponding time.
(§27) 10. Add 30 μL of the stop solution to stop the kinase reaction, centrifuge at 1000 rpm for 30 seconds, and mix by shaking.
(§28) 11. Read the conversion rate with Caliper EZ Reader.
(§29) Convert conversion values to inhibition values:
(§30) Percent inhibition=(max−conversion % sample)/(max−min)*100.
(§31) “max” stands for the mean value of the positive control well ratio; “min” stands for the mean value of the negative control well; conversion % sample: sample conversion reading.
(§32) Fit the data in log(inhibitor) vs. response Variable slope of GraphPad Prism 5 to obtain IC50 values.
(§33) Equation used is: Y=Bottom+(Top−Bottom)/(1+(IC50/X)*HillSlope)

The test system of assay [3] is HCC827(Δ19del). Nature of the assay: HCC827 cells proliferation assay. It counts as cell-based. The following applies: Homo sapiens, HCC827; cell proliferation, 72 h, CellTiter Glo; class symbols; read-out: HCC827 IC50. As to the method:
as §1, §2, §3, §4, §5, §6, §7, §8, §9, §10, §11, §12, §13, §14, §15, §16, §17, §18

In assay [4] the target is EGFR T790M/L858R (Homo sapiens, UniProt P00533, L858R/T790M). As to the kind of experiment: Kinase assay (mobility shift) for EGFR T790M/L858R. It counts as biochemical. The procedure: as §19, §20, §21, §22, §23, §24, §25, §26, §27, §28, §29, §30, §31, §32, §33
Assay [5] deals with EGFR Δ19del/T790M/C797S (Homo sapiens, UniProt P00533, T790M/C797S, form not given). Nature of the assay: Kinase assay (mobility shift) for EGFR Δ19del/T790M/C797S. The format is biochemical. The note with it: read-out: EGFR Δ 19del/T790M/C797S IC50. The procedure: as §19, §20, §21, §22, §23, §24, §25, §26, §27, §28, §29, §30, §31, §32, §33
Assay [6] addresses Ba/F3-Δ19del/T790M/C797S (Homo sapiens, UniProt P00533, T790M/C797S, cells depend on it, form not given). Nature of the assay: Ba/F3-Δ19del/T790M/C797S cells proliferation assay. The format is cell-based. The following applies: cell proliferation, 72 h, CellTiter Glo; class symbols; read-out: BaF3 Δ 19del/T790M/C797S IC50. The procedure: a) The medium was preheated in a 37 water bath in advance.
as §3
c) Transfer the cell suspension to a 15 mL centrifuge tube containing 8 mL medium, centrifuge 1000 rpm, 5 min,
as §5
a) The medium was preheated in a 37° C.; water bath in advance.
as §6, §7, §8
b) Cells were seeded to 96-well cell culture plate with density at 2000 cells/well;
as §10, §11, §12, §13, §14, §15, §16
Y=Bottom+(Top−Bottom)/(1+10^((Log IC50−X)*Hill Slope));
as §18

Where a name gives a salt, the structure may show the parent alone.

Chain of EGFR L858R (P00533 25-1210 L858R): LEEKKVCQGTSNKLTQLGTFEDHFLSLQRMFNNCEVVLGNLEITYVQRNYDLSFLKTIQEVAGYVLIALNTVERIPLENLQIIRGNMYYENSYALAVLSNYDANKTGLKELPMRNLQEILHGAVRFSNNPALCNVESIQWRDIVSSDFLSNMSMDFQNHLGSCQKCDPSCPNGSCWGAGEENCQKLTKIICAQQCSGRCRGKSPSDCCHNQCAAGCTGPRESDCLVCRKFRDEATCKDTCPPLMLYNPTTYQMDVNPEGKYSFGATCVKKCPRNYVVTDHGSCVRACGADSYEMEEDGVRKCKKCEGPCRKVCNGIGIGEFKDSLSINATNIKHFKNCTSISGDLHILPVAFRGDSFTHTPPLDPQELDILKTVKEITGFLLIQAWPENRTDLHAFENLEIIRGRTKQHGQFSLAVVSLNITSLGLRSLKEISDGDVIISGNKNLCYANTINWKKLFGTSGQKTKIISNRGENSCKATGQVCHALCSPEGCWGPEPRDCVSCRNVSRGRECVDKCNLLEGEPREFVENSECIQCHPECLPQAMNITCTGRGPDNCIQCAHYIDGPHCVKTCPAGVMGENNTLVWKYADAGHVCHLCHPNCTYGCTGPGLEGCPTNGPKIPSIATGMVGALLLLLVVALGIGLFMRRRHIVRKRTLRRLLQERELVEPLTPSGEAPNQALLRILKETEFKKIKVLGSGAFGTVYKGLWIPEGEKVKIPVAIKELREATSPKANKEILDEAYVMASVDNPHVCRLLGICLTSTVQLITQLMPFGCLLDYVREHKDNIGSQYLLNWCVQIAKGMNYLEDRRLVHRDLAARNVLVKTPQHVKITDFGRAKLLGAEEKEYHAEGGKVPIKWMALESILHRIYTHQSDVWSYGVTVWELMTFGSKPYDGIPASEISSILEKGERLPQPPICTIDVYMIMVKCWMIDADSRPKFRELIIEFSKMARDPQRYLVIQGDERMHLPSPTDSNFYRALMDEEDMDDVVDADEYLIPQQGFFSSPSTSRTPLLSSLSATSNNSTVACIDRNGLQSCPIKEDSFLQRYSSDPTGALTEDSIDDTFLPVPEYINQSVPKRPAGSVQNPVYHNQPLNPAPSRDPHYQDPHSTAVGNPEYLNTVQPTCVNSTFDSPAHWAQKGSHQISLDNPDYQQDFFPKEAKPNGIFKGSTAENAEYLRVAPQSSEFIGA
Chain of EGFR T790M/L858R (P00533 25-1210 T790M/L858R): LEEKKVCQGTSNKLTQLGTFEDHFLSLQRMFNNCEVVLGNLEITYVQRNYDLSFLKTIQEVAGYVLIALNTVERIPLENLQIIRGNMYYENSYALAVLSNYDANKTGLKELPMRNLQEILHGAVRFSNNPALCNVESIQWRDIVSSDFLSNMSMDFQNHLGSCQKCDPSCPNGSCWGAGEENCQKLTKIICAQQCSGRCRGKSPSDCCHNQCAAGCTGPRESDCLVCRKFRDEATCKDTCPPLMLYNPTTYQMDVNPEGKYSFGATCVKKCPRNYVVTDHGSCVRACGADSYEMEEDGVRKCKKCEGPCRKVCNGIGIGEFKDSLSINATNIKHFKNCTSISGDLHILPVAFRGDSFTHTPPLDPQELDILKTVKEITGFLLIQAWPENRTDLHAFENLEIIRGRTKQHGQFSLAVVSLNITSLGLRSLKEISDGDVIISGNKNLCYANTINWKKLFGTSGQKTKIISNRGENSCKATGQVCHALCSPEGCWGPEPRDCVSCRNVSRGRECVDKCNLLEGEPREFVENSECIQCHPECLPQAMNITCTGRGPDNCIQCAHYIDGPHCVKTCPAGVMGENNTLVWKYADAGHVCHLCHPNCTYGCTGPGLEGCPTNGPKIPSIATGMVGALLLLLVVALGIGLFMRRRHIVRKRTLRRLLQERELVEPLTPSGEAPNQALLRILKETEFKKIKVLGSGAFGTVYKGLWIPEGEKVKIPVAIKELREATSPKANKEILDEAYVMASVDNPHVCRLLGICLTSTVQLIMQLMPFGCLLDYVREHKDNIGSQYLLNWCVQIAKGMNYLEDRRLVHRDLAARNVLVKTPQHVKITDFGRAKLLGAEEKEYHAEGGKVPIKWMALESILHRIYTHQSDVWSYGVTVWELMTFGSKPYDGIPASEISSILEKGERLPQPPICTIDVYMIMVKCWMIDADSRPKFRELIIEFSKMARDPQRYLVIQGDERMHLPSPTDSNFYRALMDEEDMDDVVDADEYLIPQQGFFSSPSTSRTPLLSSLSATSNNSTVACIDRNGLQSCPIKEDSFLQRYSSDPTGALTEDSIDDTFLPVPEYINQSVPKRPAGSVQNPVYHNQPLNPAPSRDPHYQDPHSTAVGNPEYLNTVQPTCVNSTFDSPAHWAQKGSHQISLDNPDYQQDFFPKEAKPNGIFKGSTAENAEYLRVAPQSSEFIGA
Chain of Ba/F3-Δ19del/T790M/C797S (P00533 with tags, fused parts or gaps DEL746-750/T790M/C797S, form open): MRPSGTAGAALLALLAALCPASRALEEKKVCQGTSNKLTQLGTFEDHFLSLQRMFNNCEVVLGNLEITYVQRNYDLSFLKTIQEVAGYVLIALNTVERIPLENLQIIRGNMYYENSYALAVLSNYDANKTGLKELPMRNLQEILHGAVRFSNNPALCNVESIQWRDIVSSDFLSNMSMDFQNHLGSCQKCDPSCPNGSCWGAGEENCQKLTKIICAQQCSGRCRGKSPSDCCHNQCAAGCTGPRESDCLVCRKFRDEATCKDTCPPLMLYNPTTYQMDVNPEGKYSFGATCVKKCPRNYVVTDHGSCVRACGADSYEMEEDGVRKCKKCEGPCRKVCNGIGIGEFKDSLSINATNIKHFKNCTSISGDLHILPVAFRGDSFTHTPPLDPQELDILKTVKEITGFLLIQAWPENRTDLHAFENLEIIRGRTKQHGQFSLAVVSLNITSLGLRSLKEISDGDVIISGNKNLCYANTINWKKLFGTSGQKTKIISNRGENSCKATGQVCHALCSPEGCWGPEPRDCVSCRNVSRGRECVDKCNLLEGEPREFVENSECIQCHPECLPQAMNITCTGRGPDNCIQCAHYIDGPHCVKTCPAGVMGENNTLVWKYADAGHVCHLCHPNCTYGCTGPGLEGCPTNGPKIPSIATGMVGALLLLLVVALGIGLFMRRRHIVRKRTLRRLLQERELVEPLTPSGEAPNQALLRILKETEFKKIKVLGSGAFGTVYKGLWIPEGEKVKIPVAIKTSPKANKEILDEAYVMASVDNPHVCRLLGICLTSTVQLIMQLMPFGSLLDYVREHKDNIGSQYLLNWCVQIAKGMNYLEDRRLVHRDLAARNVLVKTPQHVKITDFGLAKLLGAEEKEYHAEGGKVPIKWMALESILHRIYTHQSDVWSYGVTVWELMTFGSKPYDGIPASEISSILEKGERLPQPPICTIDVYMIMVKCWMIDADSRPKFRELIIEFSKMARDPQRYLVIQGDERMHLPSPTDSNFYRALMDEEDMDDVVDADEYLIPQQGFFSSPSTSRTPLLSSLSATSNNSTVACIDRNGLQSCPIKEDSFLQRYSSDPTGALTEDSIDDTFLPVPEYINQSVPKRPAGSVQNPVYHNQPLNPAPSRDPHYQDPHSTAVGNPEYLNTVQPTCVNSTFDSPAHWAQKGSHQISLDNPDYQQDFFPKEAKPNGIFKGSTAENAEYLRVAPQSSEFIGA
Chain of EGFR Δ19del/T790M/C797S (P00533 with tags, fused parts or gaps DEL746-750/T790M/C797S, form open): as above

For `C=CC(=O)Nc1cc(Nc2ncc(Cl)c(Nc3ccccc3P(C)(C)=O)n2)c(OC)cc1N1CCC2(CC1)CC(N(C)C)C2` [Compound 5, N-(5-((5-chloro-4-((2-(dimethylphosphoryl)phenyl)amino)pyrimidin-2-yl)amino)-2-(2-(dimethylamino)-7-azaspiro[3.5]nonan-7-yl)-4-methoxyphenyl)acrylamide], the IC50 in assay [1] was less than 10 nM; in assay [2] it was 10 to 100 nM; in assay [3] it was 10 to 50 nM; in assay [4], less than 10 nM; in assay [5], less than 10 nM.
On to `C=CC(=O)N(C)c1cc(Nc2ncc(Cl)c(Nc3ccccc3P(C)(C)=O)n2)ccc1N1CCC2(CC1)CC(N(C)C)C2` [Compound 6, N-(5-((5-chloro-4-((2-(dimethylphosphoryl)phenyl)amino)pyrimidin-2-yl)amino)-2-(2-(dimethylamino)-7-azaspiro[3.5]nonan-7-yl)phenyl)-N-methylacrylamide], for which the IC50 in assay [5] is less than 10 nM. Moreover, the GI50 in assay [6] was in the range of 10 to 50 nM.
Consider `C=CC(=O)Nc1cc(Nc2ncc(Cl)c(Nc3ccc4nccnc4c3P(C)(C)=O)n2)c(OC)cc1N1CCC2(CC1)CC(N(C)C)C2` [Compound 11, N-(5-((5-chloro-4-((5-(dimethylphosphoryl)quinoxalin-6-yl)amino)pyrimidin-2-yl)amino)-2-(2-(dimethylamino)-7-azaspiro[3.5]nonan-7-yl)-4-methoxyphenyl)acrylamide], for which the IC50 in assay [1] was 10 to 50 nM; in assay [3], 10 to 50 nM; in assay [5], less than 10 nM. Moreover, the GI50 in assay [6] was in the range of 10 to 50 nM.
For the compound `C=CC(=O)Nc1cc(Nc2ncc(Cl)c(Nc3ccccc3P(C)(C)=O)n2)ccc1N1CCC2(CC1)CN(C)C2` [Compound 14, N-(5-((5-chloro-4-((2-(dimethylphosphoryl)phenyl)amino)pyrimidin-2-yl)amino)-2-(2-methyl-2,7-diazaspiro[3.5]nonan-7-yl)phenyl)acrylamide hydrochloric acid salt], the IC50 was 10 to 50 nM in assay [1]; less than 10 nM in assay [2]; 10 to 50 nM in assay [3]; less than 10 nM in assay [4]; less than 10 nM in assay [5].
`C=CC(=O)Nc1cc(Nc2ncc(C)c(Nc3ccccc3P(C)(C)=O)n2)ccc1N(C)CCN(C)C` [Compound 19, N-(2-((2-(dimethylamino)ethyl)(methyl)amino)-5-((4-((2-(dimethylphosphoryl)phenyl)amino)-5-methylpyrimidin-2-yl)amino)phenyl)acrylamide hydrochloric acid salt]: the IC50 is 10 to 50 nM in assay [1]; less than 10 nM in assay [2]; less than 10 nM in assay [3]; less than 10 nM in assay [4]; less than 10 nM in assay [5]. Further, in assay [6], the GI50 is 10 to 50 nM.
Regarding `C=CC(=O)Nc1cc(Nc2ncc(C)c(Nc3ccccc3P(C)(C)=O)n2)ccc1N1CCC(N2CCN(C)CC2)CC1` [Compound 20, N-(5-((4-((2-(dimethylphosphoryl)phenyl)amino)-5-methylpyrimidin-2-yl)amino)-2-(4-(4-methylpiperazin-1-yl)piperidin-1-yl)phenyl)acrylamide], the IC50 in assay [1] was 10 to 50 nM; in assay [2] it was less than 10 nM; in assay [3], less than 10 nM; in assay [4], less than 10 nM; in assay [5], less than 10 nM. In assay [6], the GI50 fell in the range of 10 to 50 nM.
For `C=CC(=O)Nc1cc(Nc2ncc(C)c(Nc3ccccc3P(C)(C)=O)n2)c(OC)cc1N(C)CCN(C)C` [Compound 21, N-(2-((2-(dimethylamino)ethyl)(methyl)amino)-5-((4-((2-(dimethylphosphoryl)phenyl)amino)-5-methylpyrimidin-2-yl)amino)-4-methoxyphenyl)acrylamide], the IC50 in assay [1] is 10 to 50 nM; in assay [2] it was less than 10 nM; in assay [3] it was less than 10 nM; in assay [4], less than 10 nM; in assay [5] it was 10 to 100 nM.
On to `C=CC(=O)Nc1cc(Nc2ncc(F)c(Nc3ccccc3P(C)(C)=O)n2)ccc1N1CCC(N2CCN(C)CC2)CC1` [Compound 29, N-(5-((4-((2-(dimethylphosphoryl)phenyl)amino)-5-fluoropyrimidin-2-yl)amino)-2-(4-(4-methylpiperazin-1-yl)piperidin-1-yl)phenyl)acrylamide], for which the IC50 was 10 to 100 nM in assay [2], 10 to 50 nM in assay [3], less than 10 nM in assay [4] and less than 10 nM in assay [5]. Also, in assay [6], the GI50 was 10 to 50 nM.
`C=CC(=O)Nc1cc(Nc2ncc(F)c(Nc3ccccc3P(C)(C)=O)n2)ccc1N(C)CCN(C)C` [Compound 32, N-(2-((2-(dimethylamino)ethyl)(methyl)amino)-5-(4-(2-(dimethylphosphoryl)phenylamino)-5-fluoropyrimidin-2-ylamino)phenyl)acrylamide]: the IC50 is 10 to 50 nM in assay [1]; less than 10 nM in assay [2]; less than 10 nM in assay [3]; less than 10 nM in assay [4]; 10 to 100 nM in assay [5].
On to `C=CC(=O)Nc1cc(Nc2ncc(Cl)c(Nc3ccccc3P(C)(C)=O)n2)c(OC)cc1N1CCC2(CCC(N(C)C)CC2)CC1` [Compound 33, N-(5-(5-chloro-4-(2-(dimethylphosphoryl)phenylamino)pyrimidin-2-ylamino)-2-(9-(dimethylamino)-3-azaspiro[5.5]undecan-3-yl)-4-methoxyphenyl)acrylamide], for which the IC50 was 10 to 50 nM in assay [1]; 10 to 100 nM in assay [2]; 10 to 50 nM in assay [3]; less than 10 nM in assay [4]; less than 10 nM in assay [5].
For the compound `C=CC(=O)Nc1cc(Nc2nccc(Nc3ccccc3P(C)(C)=O)n2)ccc1N(C)CCN(C)C` [Compound 37, N-(2-((2-(dimethylamino)ethyl)(methyl)amino)-5-((4-((2-(dimethylphosphoryl)phenyl)amino)pyrimidin-2-yl)amino)phenyl)acrylamide], the IC50 was 10 to 50 nM in assay [1]; less than 10 nM in assay [2]; less than 10 nM in assay [3]; less than 10 nM in assay [4]; 10 to 100 nM in assay [5].
In the case of `C=CC(=O)Nc1cc(Nc2ncc(Cl)c(Nc3ccccc3P(C)(C)=O)n2)ccc1OC1CCN(C)CC1` [Compound 41, N-(5-((5-chloro-4-((2-(dimethylphosphoryl)phenyl)amino)pyrimidin-2-yl)amino)-2-((1-methylpiperidin-4-yl)oxy)phenyl)acrylamide], the IC50 was 10 to 50 nM in assay [1]; 10 to 100 nM in assay [2]; 10 to 50 nM in assay [3]; less than 10 nM in assay [4]; less than 10 nM in assay [5].

Source of the values: patent US20220227796A1, “EGFR INHIBITORS, COMPOSITIONS AND METHODS THERE OF” (Betta Pharmaceuticals Co., Ltd., priority 2019, published 2022).
